According to patent US7569530B1, “Antimicrobial compositions, products and methods employing same” (The Procter & Gamble Company, priority 2003, dated 2009):

Columns and labels:
COX-1 = COX-1 (Homo sapiens, UniProt P23219); test: In vitro cycloxygenase enzyme inhibition; assay type: biochemical; conditions: treatment sample at pH 3.0
Description: (§1) In vitro studies of the present invention and its key components have been conducted to assess the efficacy of the claimed compositions in inhibiting the cycloxygenase (COX) 1 and 2 enzymes. Said enzymes are adapted to convert arachidonic acid in cell membranes to prostaglandin, a messenger agent that conveys a signal to the cells to increase and enhance their inflammatory response. […] The results of this in vitro study have been documented in the below-listed chart.

COX-2 = target: T1, COX-2 (Homo sapiens, UniProt P35354); test: In vitro cycloxygenase enzyme inhibition; assay type: biochemical; conditions: treatment sample at pH 3.0
T1 sequence (P35354 18-604): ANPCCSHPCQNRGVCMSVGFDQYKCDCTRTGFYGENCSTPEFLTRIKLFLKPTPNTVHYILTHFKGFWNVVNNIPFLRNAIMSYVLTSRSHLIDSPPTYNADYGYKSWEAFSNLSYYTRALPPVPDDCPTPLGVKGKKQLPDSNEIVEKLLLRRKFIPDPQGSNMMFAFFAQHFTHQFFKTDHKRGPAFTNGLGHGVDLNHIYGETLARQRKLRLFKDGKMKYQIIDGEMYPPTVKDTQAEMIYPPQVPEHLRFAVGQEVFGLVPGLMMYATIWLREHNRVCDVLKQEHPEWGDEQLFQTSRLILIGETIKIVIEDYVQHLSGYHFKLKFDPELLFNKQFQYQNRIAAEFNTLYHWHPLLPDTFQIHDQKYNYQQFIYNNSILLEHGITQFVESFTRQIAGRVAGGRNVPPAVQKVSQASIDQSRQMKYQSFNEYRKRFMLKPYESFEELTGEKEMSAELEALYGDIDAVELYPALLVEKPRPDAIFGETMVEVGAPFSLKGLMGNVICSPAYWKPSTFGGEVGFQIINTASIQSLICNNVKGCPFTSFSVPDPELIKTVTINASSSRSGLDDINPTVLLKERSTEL
Description: as §1

Chain of COX-1 (P23219 24-599): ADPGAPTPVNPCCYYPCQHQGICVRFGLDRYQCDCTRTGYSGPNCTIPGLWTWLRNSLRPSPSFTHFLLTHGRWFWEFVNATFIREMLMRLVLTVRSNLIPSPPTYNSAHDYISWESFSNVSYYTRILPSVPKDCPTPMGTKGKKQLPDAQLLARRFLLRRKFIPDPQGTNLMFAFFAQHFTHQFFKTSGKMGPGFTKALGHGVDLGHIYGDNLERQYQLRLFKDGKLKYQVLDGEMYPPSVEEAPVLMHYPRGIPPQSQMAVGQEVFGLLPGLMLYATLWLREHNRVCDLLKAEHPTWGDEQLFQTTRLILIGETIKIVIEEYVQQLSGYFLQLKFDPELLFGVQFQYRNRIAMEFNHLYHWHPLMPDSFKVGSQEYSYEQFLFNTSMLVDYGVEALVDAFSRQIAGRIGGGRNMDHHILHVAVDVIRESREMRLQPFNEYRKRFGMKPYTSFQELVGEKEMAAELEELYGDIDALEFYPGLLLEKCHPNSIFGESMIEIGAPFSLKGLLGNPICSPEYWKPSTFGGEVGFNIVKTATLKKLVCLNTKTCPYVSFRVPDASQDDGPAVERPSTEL

| Compound | % of Initial Enzyme Activity COX-1 (COX-1) | % of Initial Enzyme Activity COX-2 (COX-2) |
| --- | --- | --- |
| Octyl Glyceryl Sulfonate | 55% | 95% |
| O=C(O)CC(O)(CC(=O)O)C(=O)O [C, Citric Acid] | 94% | 100% |
| O=C1CC[C@@H](C(=O)O)N1 [B, Pyroglutamic Acid] | 100% | 92% |
